Results as given in the supplement of paper PMC9938120.

Tests used:
Assay in all cases: drug sensitivity score (DSS3, normalised partial AUC of % inhibition dose-response) (DSS (score)); higher = more sensitive (stronger inhibition of viability); extreme values may be limits of the assay
FMOC24 = patient-derived high-grade serous ovarian cancer cells; details: 72 h; library: FO5A; assay format: 2D, 384-well, CellTiter-Glo
In short: (§1)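 Early-passage (under 10) patient-derived ovarian cancer cells were dispensed onto 384-well flat clear-bottom plates pre-plated with compounds at five concentrations spanning a 10,000-fold range, then incubated 72 h at 37 °C, 5% CO2. Viability was read with CellTiter-Glo, and the data were processed in Breeze. The drug sensitivity score is a partial area under the percent-inhibition dose-response curve divided by the log of the upper asymptote, with higher values meaning greater sensitivity.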

FMOC25_1 = patient-derived low-grade serous ovarian cancer cells; details: 72 h; library: FO4B; assay format: 2D, 384-well, CellTiter-Glo
In short: as §1

FMOC03 = patient-derived mucinous ovarian cancer cells; details: 72 h; library: FO5A; assay format: 2D, 384-well, CellTiter-Glo
In short: as §1

FMOC02_3 = patient-derived low-grade serous ovarian cancer cells; details: 72 h; library: FO5A; assay format: 2D, 384-well, CellTiter-Glo
In short: as §1

FMOC06 = patient-derived mucinous ovarian cancer cells; details: 72 h; library: FO5A; assay format: 2D, 384-well, CellTiter-Glo
In short: as §1

FMOC14 = patient-derived high-grade serous ovarian cancer cells; details: 72 h; library: FO5A; assay format: 2D, 384-well, CellTiter-Glo
In short: as §1

FMOC25_2 = patient-derived low-grade serous ovarian cancer cells; details: 72 h; library: FO5A; assay format: 2D, 384-well, CellTiter-Glo
In short: as §1

FMOC02_2 = patient-derived low-grade serous ovarian cancer cells; details: 72 h; library: FO5A; assay format: 2D, 384-well, CellTiter-Glo
In short: as §1

FMOC09 = patient-derived high-grade serous ovarian cancer cells; details: 72 h; library: FO5A; assay format: 2D, 384-well, CellTiter-Glo
In short: as §1

FMOC22 = patient-derived mucinous ovarian cancer cells; details: 72 h; library: FO5A; assay format: 2D, 384-well, CellTiter-Glo
In short: as §1

| Structure (SMILES) | drug sensitivity score (FMOC24) | drug sensitivity score (FMOC25_1) | drug sensitivity score (FMOC03) | drug sensitivity score (FMOC02_3) | drug sensitivity score (FMOC06) | drug sensitivity score (FMOC14) | drug sensitivity score (FMOC25_2) | drug sensitivity score (FMOC02_2) | drug sensitivity score (FMOC09) | drug sensitivity score (FMOC22) |
| --- | --- | --- | --- | --- | --- | --- | --- | --- | --- | --- |
| O=C(Nc1cccc(Nc2ncc(Br)c(NCCc3cnc[nH]3)n2)c1)N1CCCC1 [BX-912] | 4.65 | 6.2 | 2.4 | 7.6 | 4.4 | 0.5 | 7.6 | 5 | 2 | 2.4 |
| O=C(Nc1c[nH]nc1-c1nc2ccc(CN3CCOCC3)cc2[nH]1)NC1CC1 [AT9283] | 4.7 | 0.1 | 3.4 | 9.3 | 2.8 | 1.8 | 5.1 | 4.1 | 5.7 | 0.5 |
| COC(=O)C[C@](O)(CCCC(C)(C)O)C(=O)O[C@@H]1C(OC)=C[C@]23CCCN2CCc2cc4c(cc2[C@H]13)OCO4 [Omacetaxine] | 23.6 | 23.8 | 16.7 | 23.8 | 19 | 21.9 | 24.6 | 20.2 | 19.1 | 15.3 |
| CN1CCN(c2cc(C(=O)Nc3ccc4c(c3)-c3c(c(C(N)=O)nn3-c3ccc(F)cc3)CC4)c(Cl)cn2)CC1 [PHA 408] | 9 | 0.6 | 5.2 | 6.8 | 4.6 | 4 | 11 | 4 | 4.8 | 4.6 |
| Nc1ccccc1NC(=O)c1ccc(CNc2nccc(-c3cccnc3)n2)cc1 [Mocetinostat] | 11.4 | 9.6 | 11.1 | 11.2 | 10.9 | 10.1 | 9.2 | 12.6 | 3.7 | 8 |
| CCc1c2c(nc3ccc(O)cc13)-c1cc3c(c(=O)n1C2)COC(=O)[C@]3(O)CC [SN-38] | 24.8 | 24.4 | 20.2 | 32.5 | 21.8 | 20.4 | 29.1 | 21.3 | 15.1 | 31 |
| CCS(=O)(=O)c1cccc(-c2cc(C(=O)NC3CCN(C)CC3)c(C)c3[nH]c4ncc(C)cc4c23)c1 [TAK-901] | 1.15 | 2.2 | 1.2 | 5.3 | 2 | 0 | 5.7 | 1 | 7 | 1.2 |
| CN[C@@H](C)C(=O)N[C@H]1CN(C(=O)CC(C)C)CC[C@H]2CC[C@@H](C(=O)NC(c3ccccc3)c3ccccc3)N2C1=O [AT-406] | 24.9 | 1.5 | 1.5 | 0.3 | 8.8 | 5.4 | 5 | 0 | 0 | 0 |
| O=C(c1cc(Cc2n[nH]c(=O)c3ccccc23)ccc1F)N1CCN(C(=O)C2CC2)CC1 [Olaparib] | 4.6 | 3 | 1.4 | 5 | 3.6 | 4.4 | 3.2 | 1.7 | 3.2 | 2.4 |
| Cc1cc(Nc2cc(CN3CCOCC3)c3nc(C)c(Cc4ccc(Cl)cc4F)n3n2)n[nH]1 [Gandotinib] | 7.6 | 3.7 | 4.7 | 10.1 | 8.9 | 6.1 | 18.8 | 16.3 | 5.1 | 1.8 |
| NC(=O)N1CCC(CC(=O)N2CCC([C@H]3c4ncc(Br)cc4CCc4cc(Cl)cc(Br)c43)CC2)CC1 [Lonafarnib] | 7.5 | 2.7 | 9.8 | 0 | 12.1 | 10.3 | 9.8 | 6.6 | 7 | 15.1 |
| COC[C@H](NC(=O)c1cnc(C)s1)C(=O)N[C@@H](COC)C(=O)N[C@@H](Cc1ccccc1)C(=O)[C@@]1(C)CO1 [Oprozomib] | 20.9 | 14.6 | 17.3 | 15.1 | 12.9 | 19.5 | 20.4 | 13.1 | 10.6 | 16.6 |
| Nc1ccn([C@@H]2O[C@H](CO)[C@@H](O)C2(F)F)c(=O)n1 [Gemcitabine] | 6 | 7.6 | 2.9 | 17.3 | 5.4 | 0 | 14.6 | 16.3 | 10.5 | 12.7 |
| CCOC(=O)CCNc1cc(N2CCc3ccccc3CC2)nc(-c2ccccn2)n1 [GSK-J4] | 3.9 | 6.7 | 3.2 | 3.2 | 4 | 1.3 | 7.5 | 0 | 0 | 4.3 |
| CCC1=C[C@@H]2CN(C1)Cc1c([nH]c3ccccc13)[C@@](C(=O)OC)(c1cc3c(cc1OC)N(C)[C@H]1[C@@](O)(C(=O)OC)[C@H](OC(C)=O)[C@]4(CC)C=CCN5CC[C@]31[C@@H]54)C2 [Vinorelbine] | 6.6 | 17.7 | 17.9 | 23.1 | 17.1 | 2.4 | 17.8 | 14.8 | 17.9 | 16.3 |
| CCCCc1nc2cc(/C=C/C(=O)NO)ccc2n1CCN(CC)CC [Pracinostat] | 14.8 | 11.6 | 12.3 | 13.3 | 12.7 | 12.4 | 10.7 | 13.3 | 5.8 | 8.7 |
| COc1ccc(-c2ccc3c(N4CCOC[C@@H]4C)nc(N4CCOC[C@@H]4C)nc3n2)cc1CO [AZD8055] | 13.3 | 30.9 | 20.7 | 29.9 | 20.3 | 16.2 | 28.8 | 28.6 | 14.5 | 17.4 |
